# Results from publication PMC10799085, “A miniaturized mode-of-action profiling platform enables high throughput characterization of the molecular and cellular dynamics of EZH2 inhibition” (Scientific Reports, 2024).
# Read-outs that look alike come from different tables or passages of the source.
# How the values were obtained:
# [1] = target: T1, PRC2/EZH2Y641N+Y661D (Homo sapiens, UniProt Q15910, Y641N/Y661D); assay: Scintillation proximity assay (SPA) of H3K27 methylation; assay type: biochemical; conditions: 60' enzyme:inhibitor pre-incubation; read-out: SPA Mean IC50 (M) - 60' enzyme:inhibitor pre-incubation EZH2Y641N+Y661D
# T1 construct: N-terminal 6His-tagged full length EZH2^Y641N, EZH2^Y111L, EZH2^Y111D, EZH2^Y641N, Y661DEZH2, EZH1; 6His (N); made in house; host or cells: Sf9 insect cells (baculovirus co-infection)
# Protocol: (§1) Assay-ready plates containing 50 nl of compound dilutions and DMSO controls were filled with 2.5 µL enzyme solution and pre-incubated for 15 min. […] Experiments were also performed without pre-incubation of enzyme and compounds. In this case, the substrate solution was added before enzyme. The reaction was stopped using 1.6 µg/µl streptavidin beads (Perkin Elmer) and 700 µM of SAM (Perkin Elmer). The plates were sealed with transparent foil.
# (§2) For equilibrium binding competition (ePCA) and SPA enzyme inhibition assays, raw data import, quality control, normalization, and curve fitting to a 4-parameter logistic equation for IC50 determination were performed using the Genedata Screener® software (Genedata AG). ePCA Ki values were either calculated using the Cheng-Prussof equation[68] or with the GraphPad Prism model “One-site—Fit Ki”.
# [2] = target: T2, PRC2/EZH2+/+ (Homo sapiens, UniProt Q15910); assay: as above; assay type: biochemical
# T2 construct: purchased Active Motif
# Protocol: as §1, §2
# [3] = target: T3, PRC2/EZH2 Y111L (Homo sapiens, UniProt Q15910, Y111L); assay: as above; assay type: biochemical
# T3 construct: N-terminal 6His-tagged full length EZH2^Y641N, EZH2^Y111L; 6His (N); made in house; host or cells: Sf9 insect cells (baculovirus co-infection)
# Protocol: as §1, §2
# [4] = target: T2, PRC2/EZH2+/+; assay: Kinetic probe competition assay (kPCA), TR-FRET; assay type: binding
# Protocol: Biotinylated PRC2 complexes and the fluorescent probe used in TR-FRET assays were generated as described in the supplementary methods section.
# For measurements at 25, 30 and 37 °C, the temperature control functionality of the instrument was used.
# TR-FRET kPCA traces were exported via Microsoft Excel to GraphPad Prism, where non-specific signals were subtracted and kinetic association competition traces were fitted to the Motulsky–Mahan model “kinetics of competitive binding” to obtain kon (k3), koff (k4) and KD parameters.
structure (smiles),measurement,setting,value
Cc1cc(C)c(CN2CCc3c(Cl)cc(-c4c(C)noc4C)c(Cl)c3C2=O)c(=O)[nH]1 [Compound 14],IC50,[1],1.6e-06 M
same,Ligand Efficiency - 0' enzyme:inhibitor pre-incubation EZH2+/+,[2],1.5
same,Ligand Efficiency - 15' enzyme:inhibitor pre-incubation EZH2+/+,[2],1.5
same,Ligand Efficiency - 60' enzyme:inhibitor pre-incubation EZH2+/+,[2],1.5
same,IC50,"[2]; 0' enzyme:inhibitor pre-incubation, read-out: SPA Mean IC50 (M) - 0' enzyme:inhibitor pre-incubation EZH2+/+",4.1e-09 M
same,IC50,"[2]; 15' enzyme:inhibitor pre-incubation, read-out: SPA Mean IC50 (M) - 15' enzyme:inhibitor pre-incubation EZH2+/+",1.9e-09 M
same,IC50,"[2]; 60' enzyme:inhibitor pre-incubation, read-out: SPA Mean IC50 (M) - 60' enzyme:inhibitor pre-incubation EZH2+/+",1.8e-09 M
same,Ligand Efficiency - 0' enzyme:inhibitor pre-incubation EZH2 Y111L,[3],1.0
same,Ligand Efficiency - 15' enzyme:inhibitor pre-incubation EZH2 Y111L,[3],1.1
same,Ligand Efficiency - 60' enzyme:inhibitor pre-incubation EZH2 Y111L,[3],1.0
same,IC50,"[3]; 0' enzyme:inhibitor pre-incubation, read-out: SPA Mean IC50 (M) - 0' enzyme:inhibitor pre-incubation EZH2 Y111L",1.1e-06 M
same,IC50,"[3]; 15' enzyme:inhibitor pre-incubation, read-out: SPA Mean IC50 (M) - 15' enzyme:inhibitor pre-incubation EZH2 Y111L",9.6e-07 M
same,IC50,"[3]; 60' enzyme:inhibitor pre-incubation, read-out: SPA Mean IC50 (M) - 60' enzyme:inhibitor pre-incubation EZH2 Y111L",1.1e-06 M
same,Kinetic Efficiency,[4]; EZH2+/+ (+ H3K27me3),3.61E-02
same,Calculated RT,[4]; EZH2+/+ (+ H3K27me3),0.29 h
same,Kd,"[4]; EZH2+/+ (+ H3K27me3), sheet ePCA&kPCA RT, read-out: Kinetic Kd",0.303 nM
same,koff,"[4]; EZH2+/+ (+ H3K27me3), sheet ePCA&kPCA RT, read-out: Kinetic koff",0.000323 s⁻¹
same,kon,"[4]; EZH2+/+ (+ H3K27me3), sheet ePCA&kPCA RT, read-out: Kinetic kon",1.06e+06 M⁻¹ s⁻¹
same,Kinetic Efficiency,[4]; EZH2+/+ (- H3K27me3),2.67E-02
same,RT (Calculated),"[4]; EZH2+/+ (- H3K27me3), 5 °C",2.28 h
same,koff,"[4]; EZH2+/+ (- H3K27me3), 5 °C, read-out: koff (Kinetic)",0.000251 s⁻¹
same,koff,"[4]; EZH2+/+ (- H3K27me3), 5 °C, read-out: koff calc (Calculated)",0.000122 s⁻¹
same,kon,"[4]; EZH2+/+ (- H3K27me3), 5 °C, read-out: kon (Kinetic)",111000 M⁻¹ s⁻¹
same,RT (Calculated),"[4]; EZH2+/+ (- H3K27me3), 15 °C",0.613 h
same,Kd,"[4]; EZH2+/+ (- H3K27me3), 15 °C, read-out: Kd (Kinetic)",0.378 nM
same,koff,"[4]; EZH2+/+ (- H3K27me3), 15 °C, read-out: koff (Kinetic)",0.000211 s⁻¹
same,kon,"[4]; EZH2+/+ (- H3K27me3), 15 °C, read-out: kon (Kinetic)",559000 M⁻¹ s⁻¹
same,RT (Calculated),"[4]; EZH2+/+ (- H3K27me3), 30 °C",0.244 h
same,Kd,"[4]; EZH2+/+ (- H3K27me3), 30 °C, read-out: Kd (Kinetic)",5.24 nM
same,koff,"[4]; EZH2+/+ (- H3K27me3), 30 °C, read-out: koff (Kinetic)",0.00307 s⁻¹
same,koff,"[4]; EZH2+/+ (- H3K27me3), 30 °C, read-out: koff calc (Calculated)",0.00114 s⁻¹
same,kon,"[4]; EZH2+/+ (- H3K27me3), 30 °C, read-out: kon (Kinetic)",582000 M⁻¹ s⁻¹
same,RT (Calculated),"[4]; EZH2+/+ (- H3K27me3), 37 °C",0.14 h
same,Kd,"[4]; EZH2+/+ (- H3K27me3), 37 °C, read-out: Kd (Kinetic)",2.4 nM
same,koff,"[4]; EZH2+/+ (- H3K27me3), 37 °C, read-out: koff (Kinetic)",0.00199 s⁻¹
same,koff,"[4]; EZH2+/+ (- H3K27me3), 37 °C, read-out: koff calc (Calculated)",0.00194 s⁻¹
same,kon,"[4]; EZH2+/+ (- H3K27me3), 37 °C, read-out: kon (Kinetic)",845000 M⁻¹ s⁻¹
same,Calculated RT,[4]; EZH2+/+ (- H3K27me3),0.21 h
same,Kd,"[4]; EZH2+/+ (- H3K27me3), sheet ePCA&kPCA RT, read-out: Kinetic Kd",2.27 nM
same,koff,"[4]; EZH2+/+ (- H3K27me3), sheet ePCA&kPCA RT, read-out: Kinetic koff",0.00201 s⁻¹
same,kon,"[4]; EZH2+/+ (- H3K27me3), sheet ePCA&kPCA RT, read-out: Kinetic kon",883000 M⁻¹ s⁻¹
